Test results: patent publication US10696692B2, “Amido-benzyl sulfone and sulfoxide derivates” (Forma TM, LLC, priority 2012, dated 2020)

Key:
A2780 cells = assay: Assay 2: In-Vitro Cell Proliferation Assay (A2780 cells, SRB readout, 72 hours); assay type: cell-based; settings: Homo sapiens, A2780, 72 h, A2780 cells, 72 hours, SRB; read-out: Cell Proliferation (IC50);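 further: viable cells counted via sulforhodamine B staining, absorbance at 570 nm, after 72 h exposure at 37 °C, DMSO 0.1% as control, media-only background subtracted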
NAMPT = NAMPT (Homo sapiens (Human), UniProt P43490); assay: Assay 1: Biochemical Inhibition Assay (NAMPT enzymatic reaction, NMN quantified by mass spectrometry); settings: read-out: Biochemical (IC50);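 further: recombinant His-tagged human NAMPT preincubated with compound 15 min, then reacted 30 min at rt with 1 µM NAM, 100 µM PRPP, 2.5 mM ATP, NMN product read by RapidFire MS, normalized to L-Cystathionine internal standard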
NAMPT, sequence (P43490 whole entry): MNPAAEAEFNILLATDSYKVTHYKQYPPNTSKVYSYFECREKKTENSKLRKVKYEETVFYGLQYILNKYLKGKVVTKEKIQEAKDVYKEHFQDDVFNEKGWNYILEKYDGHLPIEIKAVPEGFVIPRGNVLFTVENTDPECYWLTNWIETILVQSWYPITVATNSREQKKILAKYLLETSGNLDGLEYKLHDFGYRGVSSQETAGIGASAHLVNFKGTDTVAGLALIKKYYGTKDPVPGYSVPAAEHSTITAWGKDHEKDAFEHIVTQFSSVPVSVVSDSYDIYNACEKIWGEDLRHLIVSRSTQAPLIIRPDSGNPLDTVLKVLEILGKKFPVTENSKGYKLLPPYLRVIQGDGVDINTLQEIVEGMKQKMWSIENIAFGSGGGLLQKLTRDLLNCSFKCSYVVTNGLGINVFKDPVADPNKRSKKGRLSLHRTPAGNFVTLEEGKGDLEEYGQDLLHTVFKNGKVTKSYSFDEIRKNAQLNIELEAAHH

| IC50 (A2780 cells) [nM] | IC50 (NAMPT) [nM] | SMILES |
| --- | --- | --- |
| 0.488 | 14.5 | C[C@@H]1CN(S(=O)(=O)c2ccc(CNC(=O)c3cc4ccncc4o3)cc2)C[C@H](C)N1C1COC1 [Example 286, N-[[4-[(3S,5R)-3,5-dimethyl-4-(oxetan-3-yl)piperazin-1-yl]sulfonylphenyl]methyl]furo [2,3-c]pyridine-2-carboxamide] |
| 10.1 | 9.84 | O=C(NCc1ccc(S(=O)(=O)N2CC3CCC(F)(F)C3C2)cc1)c1cc2ccncc2o1 (stereo not drawn) [Example 296, N-[[4-[(4,4-difluoro-1,3,3a,5,6,6a-hexahydrocyclopenta[c]pyrrol-2-yl)sulfonyl]phenyl]methyl]furo [2,3-c]pyridine-2-carboxamide] |
| 51.2 | 16.6 | O=C(NCc1ccc(S(=O)(=O)N2CC3CC(F)(F)CC3C2)cc1)c1cc2ccncc2o1 (stereo not drawn) [Example 297, N-[[4-[(5,5-difluoro-1,3,3a,4,6,6a-hexahydrocyclopenta[c]pyrrol-2-yl)sulfonyl]phenyl]methyl]furo [2,3-c]pyridine-2-carboxamide] |
| 24.6 | 90.6 | COCCN1CCN(S(=O)(=O)c2ccc(CNC(=O)c3cc4ccncc4o3)cc2)CC1 [Example 298, N-[[4-[4-(2-methoxyethyl)piperazin-1-yl]sulfonylphenyl]methyl]furo [2,3-c]pyridine-2-carboxamide] |
| 11.1 | 24.4 | O=C(NCc1ccc(S(=O)(=O)N2CCC(CO)CC2)cc1)c1cc2ccncc2o1 [Example 299, N-[[4-[[4-(hydroxymethyl)-1-piperidyl]sulfonyl]phenyl]methyl]furo[2,3-c]pyridine-2-carboxamide] |
| 21.5 | 21.4 | O=C(NCc1ccc(S(=O)(=O)N2CCC(F)(F)C2)cc1)c1cc2ccncc2o1 [Example 300, N-[[4-(3,3-difluoropyrrolidin-1-yl)sulfonylphenyl]methyl]furo [2,3-c]pyridine-2-carboxamide] |
| 83.6 | 46.7 | O=C(NCc1ccc(S(=O)(=O)N2CC(F)(F)C2)cc1)c1cc2ccncc2o1 [Example 301, N-[[4-(3,3-difluoroazetidin-1-yl)sulfonylphenyl]methyl]furo [2,3-c]pyridine-2-carboxamide] |
| 27.1 | 41.8 | O=C(NCc1ccc(S(=O)(=O)N2CC3CCOC3C2)cc1)c1cc2ccncc2o1 (stereo not drawn) [Example 302, N-[[4-(2,3,3a,4,6,6a-hexahydrofuro[2,3-c]pyrrol-5-ylsulfonyl)phenyl]methyl]furo [2,3-c]pyridine-2-carboxamide] |
| 15.4 | 22.7 | O=C(NCc1ccc(S(=O)(=O)N2CCC3(CCCO3)C2)cc1)c1cc2ccncc2o1 (stereo not drawn) [Example 303, N-[[4-(1-oxa-7-azaspiro[4.4]nonan-7-ylsulfonyl)phenyl]methyl]furo [2.3-c]pyridine-2-carboxamide] |
| 41.9 | 65.2 | O=C(NCc1ccc(S(=O)(=O)N2CC3CC2CO3)cc1)c1cc2ccncc2o1 (stereo not drawn) [Example 304, N-[[4-(2-oxa-5-azabicyclo[2.2.1]heptan-5-ylsulfonyl)phenyl]methyl]furo [2,3-c]pyridine-2-carboxamide] |
| 17.8 | 41.4 | O=C(NCc1ccc(S(=O)(=O)N2CC3CCC(C2)O3)cc1)c1cc2ccncc2o1 [Example 305, N-[[4-(8-oxa-3-azabicyclo[3.2.1]octan-3-ylsulfonyl)phenyl]methyl]furo [2,3-c]pyridine-2-carboxamide] |
| 2000 | 1420 | O=C(NCc1ccc(S(=O)(=O)N2CCCCC2)cc1)c1ccn2cncc2c1 [Example 308, N-[[4-(1-piperidylsulfonyl)phenyl]methyl]imidazo[1,5-a]pyridine-7-carboxamide] |
| 48.9 | 113 | CCC(=O)N1CCC(S(=O)(=O)c2ccc(CNC(=O)c3cc4ccncc4o3)cc2)CC1 [Example 312, N-[[4-[(1-propanoyl-4-piperidyl)sulfonyl]phenyl]methyl]furo[2,3-c]pyridine-2-carboxamide] |
| 53.8 | 35 | CC(C)C(=O)N1CCC(S(=O)(=O)c2ccc(CNC(=O)c3cc4ccncc4o3)cc2)CC1 [Example 313, N-[[4-[[1-(2-methylpropanoyl)-4-piperidyl]sulfonyl]phenyl]methyl]furo[2,3-c]pyridine-2-carboxamide] |
| 51.9 | 20.3 | CCCC(=O)N1CCC(S(=O)(=O)c2ccc(CNC(=O)c3cc4ccncc4o3)cc2)CC1 [Example 314, N-[[4-[(1-butanoyl-4-piperidyl)sulfonyl]phenyl]methyl]furo[2,3-c]pyridine-2-carboxamide] |
| 30.3 | 89 | CC(C)N1CCC(S(=O)(=O)c2ccc(CNC(=O)c3ccc4nccn4c3)cc2)CC1 [Example 315, N-[[4-[(1-isopropyl-4-piperidyl)sulfonyl]phenyl]methyl]imidazo[1,2-a]pyridine-6-carboxamide] |
| 87.7 | 82.1 | NC1CCN(S(=O)(=O)c2ccc(CNC(=O)c3ccc4nccn4c3)cc2)CC1 [Example 317, N-[[4-[(4-amino-1-piperidyl)sulfonyl]phenyl]methyl]imidazo[1,2-a]pyridine-6-carboxamide] |
| 102 | 106 | O=C(NCc1ccc(S(=O)(=O)N2CCOC3(CCNCC3)C2)cc1)c1ccc2nccn2c1 [Example 319, N-[[4-(1-oxa-4,9-diazaspiro[5.5]undecan-4-ylsulfonyl)phenyl]methyl] imidazo[1,2-a]pyridine-6-carboxamide] |
| 61.9 | 68.7 | NC12CC1CN(S(=O)(=O)c1ccc(CNC(=O)c3ccc4nccn4c3)cc1)C2 (stereo not drawn) [Example 320, N-[[4-[(5-amino-3-azabicyclo[3.1.0]hexan-3-yl)sulfonyl]phenyl]methyl] imidazo[1,2-a]pyridine-6-carboxamide] |
| 54 | 65.1 | O=C(NCc1ccc(S(=O)(=O)N2CCC3(CCCN3)CC2)cc1)c1ccc2nccn2c1 [Example 321, N-[[4-(1,8-diazaspiro[4.5]decan-8-ylsulfonyl)phenyl]methyl] imidazo[1,2-a]pyridine-6-carboxamide] |
| 39 | 43.4 | O=C(NCc1ccc(S(=O)(=O)N2CCOC3(CCCNC3)C2)cc1)c1ccc2nccn2c1 (stereo not drawn) [Example 322, N-[[4-(1-oxa-4,8-diazaspiro[5.5]undecan-4-ylsulfonyl)phenyl]methyl] imidazo[1,2-a]pyridine-6-carboxamide] |
| 13.3 | 17.7 | NC1CC2(CCN(S(=O)(=O)c3ccc(CNC(=O)c4ccc5nccn5c4)cc3)CC2)C1 [Example 323, N-[[4-[(2-amino-7-azaspiro[3.5]nonan-7-yl)sulfonyl]phenyl]methyl] imidazo[1,2-a]pyridine-6-carboxamide] |
| 24.8 | 19.2 | O=C(NCc1ccc(S(=O)(=O)N2CCC3(CCNCC3)CC2)cc1)c1ccc2nccn2c1 [Example 324, N-[[4-(3,9-diazaspiro[5.5]undecan-3-ylsulfonyl)phenyl]methyl] imidazo[1,2-a]pyridine-6-carboxamide] |
| 27.5 | 25.6 | O=C(NCc1ccc(S(=O)(=O)N2CCC3(CCCNC3)CC2)cc1)c1ccc2nccn2c1 [Example 325, N-[[4-(2,9-diazaspiro[5.5]undecan-9-ylsulfonyl)phenyl]methyl] imidazo[1,2-a]pyridine-6-carboxamide] |
